The values that follow come from patent publication US20200236969A1, “METHODS AND COMPOSITIONS FOR IMPROVING GROWTH AND PERFORMANCE” (priority 2017, published 2020).

One assay concerns turkey poults. Briefly: Pen trial of probiotic blends alone and with prebiotics: body weight, uniformity, feed conversion. In kind it is in vivo. How it is done:
Pen trial experiments were performed using the 4-strain probiotic blend and 10-strain (3 week) probiotic blend described in Example 2. The effect of each combination was assessed alone and in combination with one of two prebiotics, Lactose 1% in feed or 0.5 lbs SAFMANNAN per ton of feed (Phileo Lesaffre Animal Care, Marcq-En-Baroeul Cedex, France). The prebiotic was administered continuously in feed.
This Experiment started in December 2017 and lasted 15 weeks. Poults were housed in pens through 6 weeks of age then moved to a common area. They remained on experimental feed through 6 weeks; then were all given control feed. Probiotic inoculations were performed at day of hatch and 3 weeks of age.

The test system of another assay is day-of-hatch turkeys. Briefly: Second caged trial: 4-strain combination vs FM-B11 and BMD, body weight. In kind it is in vivo, turkey. The source says: FIG. 5A and FIG. 5B show average body weights in grams (y-axis) for day-of-hatch turkeys treated with a 4-strain probiotic blend inoculation group, day-of-hatch turkeys treated with an existing commercial probiotic derived from chickens (FM-B11), and day-of-hatch turkeys treated with a low-dose antibiotic (bacitracin methylene disalicylate or BMD), as described in Example 2, compared to day-of-hatch turkeys treated with a saline negative control. FIG. 5A. Turkeys were weighed on day 0 (that is, day-of-hatch), day 3, day 6, and day 13. Error bars depict standard error of means. […] For each treatment group, eight replicate cages were used with 10 birds per cage (n=80 per treatment group).
A second trial was performed to repeat the 4-strain combination inoculation and compare it again with a negative saline control, an existing commercial probiotic derived from chickens (FM-B11), and a low-dose antibiotic (bacitracin methylene disalicylate or BMD) administered continuously at 50 g/ton in the feed. […] Results are shown in FIG. 5 and Table 5 and indicate that there is repeatability in the ability of this 4-strain combination to enhance turkey performance related to weight gain.

`OC[C@H]1O[C@@H](O[C@H]2[C@H](O)[C@@H](O)C(O)O[C@@H]2CO)[C@H](O)[C@@H](O)[C@H]1O` (stereo partly shown) [Lactose 1%, Lactose]: the “Feed conversion ratio 0-2 weeks” value in the assay on turkey poults (0-2 weeks of age) stood at 1.40. Besides, the “Feed conversion ratio 0-6 weeks” value in the assay on turkey poults (0-6 weeks of age) came to 1.71. Besides, the “Total body weight average Day 0” value in the assay on turkey poults (Day 0 (baseline), pen trial) worked out at 65.0 grams. The “Total body weight average Week 1” value in the assay with turkey poults (Week 1, pen trial, probiotic at day of hatch and 3 weeks, prebiotic continuously in feed) was determined as 169.9 grams. For the same compound, the “Total body weight average Week 2” value with turkey poults (Week 2, pen trial) stood at 350.7 grams. For the same compound, the “Total body weight average Week 3” value in the assay on turkey poults (Week 3, pen trial) is listed as 704.0 grams. Besides, in the assay on turkey poults (Week 3 of age), the “Coefficient of variation as a measure of bird uniformity Week 3” value turned out to be 10.304. For the same compound, the “Total body weight average Week 6” value in the assay with turkey poults (Week 6, pen trial) came to 2471.0 grams. Further, the “Coefficient of variation as a measure of bird uniformity Week 6” value in the assay on turkey poults (Week 6 of age) was 9.3181.
With “bacitracin methylene disalicylate [BMD Antibiotic]”, in the assay with day-of-hatch turkeys (day 3), the “Average body weight Day 3” value was found to be 76.8 g. Moreover, the “Average body weight Day 6” value in the assay on day-of-hatch turkeys (day 6) came to 125.5 g. The “Average body weight Day 13” value in the assay with day-of-hatch turkeys (day 13) worked out at 314.3 g. Besides, the “Average body weight Day 0” value with day-of-hatch turkeys (day-of-hatch (baseline)) is recorded as 60.1 g.
